This passage reports Ki results from publication PMC3171632 (2011).

The target in assay [1] is T1, LuxS (S-ribosylhomocysteinase) (Bacillus subtilis, UniProt O34667).
T1 sequence (O34667 1-157): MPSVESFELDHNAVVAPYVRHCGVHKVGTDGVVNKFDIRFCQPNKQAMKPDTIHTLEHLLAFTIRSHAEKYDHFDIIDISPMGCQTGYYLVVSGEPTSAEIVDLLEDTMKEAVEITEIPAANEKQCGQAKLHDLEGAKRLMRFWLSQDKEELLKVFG
Kind of assay: LuxS activity assay with SRH and DTNB at […] nm, […] min preincubation. The assay is classed as biochemical.

Assay [2] addresses T1, LuxS (S-ribosylhomocysteinase). As to the kind of experiment: LuxS activity assay with SRH and DTNB at […] nm. The assay is classed as biochemical.

Take `N[C@@H](CCSC[C@H]1NC(O)[C@H](O)[C@@H]1O)C(=O)O` (mixture of isomers) [compound 23, S-(4-Amino-4,5-dideoxy-α/β-D-ribofuranos-5-yl)-L-homocysteine]: in assay [1], the affinity corresponds to a Ki of 3.5 µM.

With `N[C@@H](CCSC[C@H]1NC(=O)[C@H](O)[C@@H]1O)C(=O)O` [compound 21, S-(4-Amino-4,5-dideoxy-D-ribono-1,4-lactam-5-yl)-L-homocysteine], in assay [2], the Ki stood at 37 µM.

The compound `N[C@@H](CCSC[C@H]1NC[C@H](O)[C@@H]1O)C(=O)O` [compound 12, S-(1-Amino-1,4-anhydro-1,5-dideoxy-D-ribitol-5-yl)-L-homocysteine] showed a Ki in assay [2] of 48 µM.

As usually defined, the Ki is the equilibrium dissociation constant of an inhibitor or competing ligand from its target. Read a high Ki as a looser hold on the target.
